In one test the test system is Klebsiella pneumoniae. The experiment in a line: AATCC Test Method 100: Assessment of Antibacterial Finishes on Textile Materials (Klebsiella pneumoniae). The test is classed as cell-based, ATCC 4352. From the text:
(§1) A dry bactericidal wipe comprising was formed using 100% 1.5 denier Visocel® rayon fibers 38-mm in length, available from SNIACE of Torrelavega, Cantabria, Spain. A binder composition containing 5% of an acrylic binder, ST 954, available from Rohm and Hass Chemicals LLC of Charlotte, N.C., U.S.A. and 95% water was applied first using foam application at the first application at a level of about 10.6 grams per square yard, heating using steam or oil heated cans for about 45 seconds at a temperature of about 275° Fahrenheit. A second application of the binder/bactericidal composition containing 5% of the ST 954 acrylic binder, 1% tetradecylbenzyldimethyl ammonium chloride, and 94% water was applied by padding at a level of about 1.2 grams per square yard. The web is then heated in the same manner as above. The wipe has thickness of about 11 mils measured according to ASTM D 1777 and a basis weight of 37.8 g/yd^2, measured according to ASTM D 3776. A sample was prepared for bactericidal testing according to AATCC Test Method 100: Assessment of Antibacterial Finishes on Textile Materials.
(§2) Another aspect of the present invention is the discovery of a new use for a certain bactericidal agent, namely the tetradecylbenzyldimethyl ammonium chloride. As will be appreciated by those skilled in the art, there are various methods to assess the effectiveness of a bactericidal agent. The discovery here is that this particular bactericidal agent provides a greater than 90%, preferably greater than 95%, and more preferably greater than 99% reduction in bacterium, including methicillin resistant Staphylococcus aureus (MRSA or Mursa), Staphylococcus aureus, Klebsiella pneumoniae, or combinations thereof. One method for determining the reduction of such organisms is American Association of Textile Chemists and Colorists (AATCC) Test Method 100, using American Type Culture Collection (ATCC) reference organisms ATCC 33591, methicillin resistant Staphylococcus aureus (MRSA), ATCC 6538, Staphylococcus aureus, and ATCC 4352, Klebsiela pneumoniae. […]

The subject of test [1] is methicillin resistant Staphylococcus aureus (MRSA). The experiment in a line: AATCC Test Method 100: Assessment of Antibacterial Finishes on Textile Materials (MRSA). The test is classed as cell-based.
Source text: as §1, §2

The next test has as its system Staphylococcus aureus. As to the kind of experiment: AATCC Test Method 100: Assessment of Antibacterial Finishes on Textile Materials (Staphylococcus aureus). The test is classed as cell-based, ATCC 6538.
Source text: as §1, §2

Setting [2] is: listed as tetradecyl benzyl dimethyl ammonium chloride.
The mark [3] stands for this setting: listed as tetradecyldimethylbenzyl ammonium chloride.

Read-outs that look alike come from different tables or passages of the source.

For the compound `CCCCCCCCCCCCCC[N+](C)(C)Cc1ccccc1.[Cl-]` [tetradecylbenzyldimethyl ammonium chloride], the results for the “reduction in the Klebsiella pneumoniae bacterium” value in the test on Klebsiella pneumoniae, in the test on Klebsiella pneumoniae (setting [2]) and in the test with Klebsiella pneumoniae (setting [3]) were “greater than 90%”, “greater than 90%” and “more than 99%”, respectively. In addition, the “reduction in methicillin resistant Staphylococcus aureus (MRSA)” value was “greater than 90%” in test [1], “greater than 90%” in test [1] (setting [2]) and “more than 99%” in test [1] (setting [3]). In addition, the “reduction in Staphylococcus aureus bacterium” value was “greater than 90%” in the test on Staphylococcus aureus, “greater than 90%” in the test on Staphylococcus aureus (setting [2]) and “more than 99%” in the test with Staphylococcus aureus (setting [3]).

The record behind these values is patent US20090246240A1, “DRY BACTERICIDAL NONWOVEN WIPE” (priority 2008, published 2009).
